pIC50: −log10 of the molar value. “And” between values parts separate entries of the source, which are not always exact repeats. Equal values may be shown once. Read-outs that look alike come from different tables or passages of the source.
What was measured:
[1] = test system: 8226/Dox human myeloma cells; test: Sensitization of 8226/Dox cells to Vincristine by MDR-oligos in 5% oxygen; type: cell-based; conditions: 5% oxygen
Protocol: (§1) As shown in this example, several oligos which target the MDR1 gene are able to sensitize multidrug-resistant cell lines to the cytotoxic effects of the chemotherapeutic agent Vincristine. Tumor cells were treated in vitro with 10 μM of the indicated oligo for 4 days at 37° C., then counted, dispensed into individual tubes, and pulsed with Vincristine at various doses (serial 5-fold dilutions) for 3 hrs. The cells were then washed and seeded into 96-well plates (quadruplicate replicates) for pulsing with tritiated thymidine 3 days later. Cells were harvested the next day (=4th day after drug treatment). Tritiated thymidine uptake was analyzed by liquid scintillation.

[2] = test system: CEM/VLB10 human leukemia cells; test: Sensitization of CEM/VLB10 cells to Vincristine by MDR-oligos in 5% oxygen; type: cell-based; conditions: 5% oxygen; for pIC50: Vincristine IC50 after 4 days with 10 μM oligo, read-out: IC50 dose; for Relative sensitization (fold increase): to Vincristine, 10 μM oligo
Protocol: as §1

[3] = test system: 8226/Dox human myeloma cells; test: Sensitivity of 8226/Dox cells to Vincristine with increasing time after Vincristine exposure; type: cell-based; conditions: for Relative Sensitization (fold increase) Day 5: Day 5 after Vincristine exposure; for Relative Sensitization (fold increase) Day 7: Day 7 after Vincristine exposure; for Relative Sensitization (fold increase) Day 9: Day 9 after Vincristine exposure
Protocol: As shown in this example, several oligos which target the MDR1 gene are able to sensitize multidrug-resistant cell lines to the cytotoxic effects of the chemotherapeutic agent Vincristine. […] The cells were then washed and seeded into 96-well plates (quadruplicate replicates) for pulsing with tritiated thymidine 3 days later. Cells were harvested the next day (=4th day after drug treatment). Tritiated thymidine uptake was analyzed by liquid scintillation.
As shown in this example, it was determined that there was an increase in sensitivity of multidrug-resistant 8226/Dox human myeloma cells to Vincristine with increasing time of incubation following initial exposure to Vincristine. The experimental conditions were identical to those utilized in obtaining the data shown in Table 7, except that the present experiment had two additional time points.

[4] = test system: A427 human non-small-cell lung adenocarcinoma cell line; test: Sensitization of A427 lung cancer cells to etoposide by MRP-oligos; type: cell-based
Protocol: The human non-small-cell lung adenocarcinoma cell line A427 was treated with oligos at various concentrations for 4 days in vitro. The cells then were pulsed with various concentrations of etoposide (range 1.6×10^-4 to 1×10^-6 M) for 3 hrs. Next, cells were trypsinized and seeded by volume into 96-well plates with 12 replicates per treatment condition. Three days later, tritiated thymidine was added and the cells harvested the next day.

8226/Dox cells = test: Sensitization of 8226/Dox cells to Vincristine by an MRP-oligo and MDR-ODNs; type: cell-based, human; conditions: for pIC50: Vincristine IC50 after oligo treatment, conditions as Example 2, read-out: IC50 dose; for Relative sensitization (fold increase): to Vincristine, vs medium only
Protocol: as §1
In this example, experimental conditions were identical to those utilized in obtaining the data in Example 2.

[5] = test system: 8226/Dox4 human myeloma cells; test: Vincristine IC50 summary after MDR-oligo treatment; type: cell-based; conditions: oligo 0.2 μM; compared to media control
Protocol: (§2) In vitro testing of MDR-Oligonucleotides was done on the multidrug-resistant (MDR+) RPMI-8226/Dox4 human multiple myeloma cell line (gift of Dr. William Dalton, Univ. Arizona Cancer Ctr., Tucson). Cells were incubated in vitro for 4 days at 37° C. with MDR-oligos at 0.2 μM final concentration; pulsed 18 hr with serial 5-fold dilutions of chemotherapeutic drug (vincristine) from 1×10^-4 M to 2×10^-10 M. Cells were then washed, and incubated for an additional 4 days. Tritiated thymidine (^3 H-TdR) was added for last 18 hr to measure status of cellular proliferation. Controls included MDR^+ 8226 cells similarly treated with vincristine but pretreated either with (a) control ODNs, or (b) culture medium only.

8226/Dox4 cells = test: Parsimonious regression model estimates of count and Vincristine IC50; type: cell-based, human; conditions: for Estimated Mean Count (cpm): 3H-TdR count at VCR Dose = 0, oligo alone, media only 159,500; for Fold Increase in drug sensitivity: compared to corresponding oligo control (no drug)
Protocol: as §2
The following mathematical/statistical model was used to analyze the effects of oligos and various drug treatments on targeted tumor cells in these studies. The model is based on experiments which generally involve treatment of tumor cells with one of several ODNs or media only, and with several dose levels of an anti-cancer agent (such as, for example, vincristine (VCR)) or media only. Analysis goals were to model the relationship of cell kill to the dose of VCR (for example), and to compare the effects of the various ODNs.
This final model contained 10 regressor variables.
Various estimates of parameters from the parsimonious model are shown in TABLE 13, which contains the model estimate of the count for each ODN with media only; differences here (when compared to "media only" [no ODN]) reflect the cell kill associated with the ODN alone. TABLE 13 also contains an estimate of IC50 values, the dose of vincristine (VCR) which is estimated to produce an expected count which is exactly half that expected with "media only" [no VCR]. While formal statistical comparisons of the IC50 values of the various ODNs is not possible, an ordering of the ODNs by estimated IC50 values is possible.

Compound: 5(1)mdr: SEQ ID NO 10: CCCTACCTCGCGCTCCTTGGAACGGC (CCCTACCTCGCGCTCCTTGGAACGGC; chemistry not given here)
- pIC50 ([1]; Vincristine IC50 after 4 days with 10 μM oligo, read-out: IC50 dose): 6.74
- Relative sensitization (fold increase) ([1]; to Vincristine, 10 μM oligo): 2.5 fold increase
- pIC50 [2]: 7.05
- Relative sensitization (fold increase) [2]: 111 fold increase
- Relative Sensitization (fold increase) Day 5 ([3]; oligo 2 μM): 3.4 fold increase
- Relative Sensitization (fold increase) Day 7 ([3]; oligo 2 μM): 26.9 fold increase
- Relative Sensitization (fold increase) Day 9 ([3]; oligo 2 μM): 724 fold increase
- Relative Sensitization (fold increase) Day 5 ([3]; oligo 10 μM): 2.1 fold increase
- Relative Sensitization (fold increase) Day 7 ([3]; oligo 10 μM): 20.5 fold increase
- Relative Sensitization (fold increase) Day 9 ([3]; oligo 10 μM): 423 fold increase

Compound: 5(2)MRP: SEQ ID NO 43: CGGTGGCGCGGGCGGCGGCGGGCACC (CGGTGGCGCGGGCGGCGGCGGGCACC; chemistry not given here)
- Etoposide (VP-16) Relative Sensitization (fold increase) ([4]; oligo 10 μM): 6 fold increase

Compound: 5(3)MRP: SEQ ID NO 42: CGGCGGCGGCGGCGCAGGGAGCCGGG (CGGCGGCGGCGGCGCAGGGAGCCGGG; chemistry not given here)
- Etoposide (VP-16) Relative Sensitization (fold increase) ([4]; oligo 10 μM): 5 fold increase

Compound: COc1cc([C@@H]2c3cc4c(cc3[C@@H](O[C@@H]3O[C@@H]5CO[C@@H](C)O[C@H]5[C@H](O)[C@H]3O)[C@H]3COC(=O)[C@H]23)OCO4)cc(OC)c1O [Etoposide (VP-16), etoposide, reference compound]
- pIC50 ([4]; Homo sapiens, A-427, read-out: Etoposide (VP-16) IC50, Media Control (no oligo)): 4.44
- pIC50 ([4]; read-out: Etoposide (VP-16) IC50, Media Control (no oligo)): 4.30 and 4.22

Compound: CO[C@@H]1[C@@H](OC(N)=O)[C@@H](O)[C@H](Oc2ccc3c(O)c(NC(=O)c4ccc(O)c(CC=C(C)C)c4)c(=O)oc3c2C)OC1(C)C [Novobiocin, novobiocin, reference compound]
- Etoposide (VP-16) Relative Sensitization (fold increase) ([4]; novobiocin used at the same time as VP-16): 5.0 fold increase
- Etoposide (VP-16) Relative Sensitization (fold increase) ([4]; novobiocin used at the same time as VP-16, listed as novobiocin): about 5 fold increase

Compound: OL(2)MRP: SEQ ID NO 49: CGGTGATGCT GTTCGTGCCC (CGGTGATGCTGTTCGTGCCC; chemistry not given here)
- Etoposide (VP-16) Relative Sensitization (fold increase) ([4]; oligo 10 μM): 2.4 fold increase

Compound: OL(2)mdr: SEQ ID NO 35: GCAACCAGCA CCCCAGCACC (GCAACCAGCACCCCAGCACC; chemistry not given here)
- pIC50 [2]: 6.80
- Relative sensitization (fold increase) [2]: 62 fold increase
- pIC50 (8226/Dox cells): 6.52
- Relative sensitization (fold increase) (8226/Dox cells): 3.7 fold increase

Compound: OL(3)MRP: SEQ ID NO 62, position 2848: CCCTGGACCG CTGACGCCCG (CCCTGGACCGCTGACGCCCG; chemistry not given here)
- Etoposide (VP-16) Relative Sensitization (fold increase) ([4]; oligo 10 μM): 5 fold increase

Compound: OL(3)mdr: SEQ ID NO 37: TGCCCACCAG AGCCAGCGTC (TGCCCACCAGAGCCAGCGTC; chemistry not given here)
- pIC50 [2]: 6.70
- Relative sensitization (fold increase) [2]: 50 fold increase
- pIC50 (8226/Dox cells): 7.00
- Relative sensitization (fold increase) (8226/Dox cells): 11 fold increase

Compound: OL(4)MRP: SEQ ID NO 76: CGATGCCGAC CTTTTCTCC (CGATGCCGACCTTTTCTCC; chemistry not given here)
- Etoposide (VP-16) Relative Sensitization (fold increase) ([4]; oligo 1 μM): 3 fold increase

Compound: OL(5)MRP: SEQ ID NO 48: CTGCGGCCCG GAAAACATCA (CTGCGGCCCGGAAAACATCA; chemistry not given here)
- Etoposide (VP-16) Relative Sensitization (fold increase) ([4]; oligo 10 μM): 6 fold increase

Compound: OL(5)mdr: SEQ ID NO 21: TCTGGACTTT GCCCGCCGCC (TCTGGACTTTGCCCGCCGCC; chemistry not given here)
- pIC50 [2]: 6.82
- Relative sensitization (fold increase) [2]: 67 fold increase

Compound: OL(6)MRP: SEQ ID NO 60: GGGCCAGGCT CACGCGCTGC (GGGCCAGGCTCACGCGCTGC; chemistry not given here)
- Etoposide (VP-16) Relative Sensitization (fold increase) ([4]; oligo 10 μM): 8 fold increase

Compound: OL(6A)mdr: SEQ ID NO 2: GTGCTCAGCC CACGCCCCGG (GTGCTCAGCCCACGCCCCGG; chemistry not given here)
- pIC50 (8226/Dox cells): 7.06
- Relative sensitization (fold increase) (8226/Dox cells): 12.5 fold increase

Compound: OL(10)mdr: SEQ ID NO 11: GCTCCCAGCT TTGCGTGCCC (GCTCCCAGCTTTGCGTGCCC; chemistry not given here)
- Fold-Increase in sensitivity to drug treatment [5]: 40 fold

Compound: OL(12)mdr: SEQ ID NO 12: GCGCGCTCCG GGCAACATGG (GCGCGCTCCGGGCAACATGG; chemistry not given here)
- Fold-Increase in sensitivity to drug treatment [5]: 200 fold
- Estimated Mean Count (cpm) (8226/Dox4 cells): 159,500 cpm
- Fold Increase in drug sensitivity (8226/Dox4 cells): 233 fold

Compound: OL(12A)mdr: SEQ ID NO 13: CGCGCTCCGGGCAACATGGTCC (CGCGCTCCGGGCAACATGGTCC; chemistry not given here)
- Fold-Increase in sensitivity to drug treatment [5]: 375 fold
- Estimated Mean Count (cpm) (8226/Dox4 cells): 159,500 cpm
- Fold Increase in drug sensitivity (8226/Dox4 cells): 414 fold

Compound: OL(12B)mdr: SEQ ID NO 14: CGCGCTCCGG GCAACATG (CGCGCTCCGGGCAACATG; chemistry not given here)
- Fold-Increase in sensitivity to drug treatment [5]: 40 fold
- Estimated Mean Count (cpm) (8226/Dox4 cells): 159,500 cpm
- Fold Increase in drug sensitivity (8226/Dox4 cells): 17.3 fold

Compound: OL(14)MRP: SEQ ID NO 44: GCGGGTCGGA GCCATCGGCG (GCGGGTCGGAGCCATCGGCG; chemistry not given here)
- Etoposide (VP-16) Relative Sensitization (fold increase) ([4]; oligo 10 μM): 3 fold increase

Compound: SJ(34)mdr: SEQ ID NO 5: TCGAATGAGC TCAGGCTTCC (TCGAATGAGCTCAGGCTTCC; chemistry not given here)
- Fold-Increase in sensitivity to drug treatment [5]: 293 fold

Compound: SJ(34A)mdr: SEQ ID NO 6: TCGAATGAGC TCAGGCTT (TCGAATGAGCTCAGGCTT; chemistry not given here)
- Fold-Increase in sensitivity to drug treatment [5]: > 7500 fold
- Estimated Mean Count (cpm) (8226/Dox4 cells): 100,300 cpm
- Fold Increase in drug sensitivity (8226/Dox4 cells): 188 fold

Compound: SJ(34C)mdr: SEQ ID NO 8: AGCTCAGGCT TCCTGTGGCA (AGCTCAGGCTTCCTGTGGCA; chemistry not given here)
- Fold-Increase in sensitivity to drug treatment [5]: 2182 fold

Compound: SJ(36)mdr: SEQ ID NO 39: CCAGGGCTTCTTGGACAACCTA (CCAGGGCTTCTTGGACAACCTA; chemistry not given here)
- pIC50 [2]: 6.80
- Relative sensitization (fold increase) [2]: 62 fold increase

— US5683987A, “Therapeutic oligonucleotides targeting the human MDR1 and MRP genes” (The Board of Regents of the University of Nebraska, priority 1995, dated 1997)
